# Measurements as given in patent US20260115331A1, “PET IMAGING OF BACTERIAL INFECTION WITH A PET PROBE” (Mayo Foundation for Medical Education and Research, priority 2022, published 2026).
# Test: PET image analysis (SUV) of inflamed tibia in foreign body inflammation rat model
# Type: in vivo, rats
# Details: each time point up to 120 minutes (FIG. 27)
# Description: The PET probe [^68Ga]Ga-H3P2O8 was evaluated in methicillin-resistant S. aureus (MRSA) foreign-body osteomyelitis in the left tibia with a stainless steel Kirschner wire (K-wire) implant in male Wister rats, following a previously established protocol [Ref. 17]. Briefly, a 1 cm incision was made on the medial tibia and the bone exposed. A 1.5 mm hole was drilled, 0.01 mL of arachidonic acid (a sclerosing agent) and 0.05 mL of a suspension containing MRSA DRL-6169 at 10^8 cfu/mL was injected into the bone. A 5 mm threaded stainless-steel K-wire was inserted. The hole was closed with dental gypsum and the site closed. After implantation, the muscle and fascia were closed with 3-0 vicryl using simple interrupted sutures. The skin was closed with sterile wound clips and VetBond. The wound was sprayed with Aluspray and Chew Guard. After 7 days of implantation of wire, the animal was put on iron-deficient diet for 7 days and on the day of imaging, the animals were fasted for 4 hours prior to the injection of the PET probe. [^68Ga]Ga-H3P2O8 (32.81±6.28 MBq, n=18) were injected into the rat model via tail vein injection. The rat model was either a normal rat model or an osteomyelitis foreign body rat model or an inflamed foreign body rat model. PET/CT images were acquired at 15 minutes, 30 minutes, 60 minutes, and 120 minutes post-injection using Siemens Inveon MicroPET/CT Scanner (see FIGS. 17, 18, and Table 2).
# To assess the preferential uptake of novel [^68Ga]Ga-H3P2O8 PET probe in infection as compared to inflammation, the same surgery and imaging was performed but omitted the MRSA. […] The probe [^68Ga]Ga-H3P2O8 was also successfully used to detect thigh infection caused by E coli in a mouse model.
# To further investigate the selectivity of [^68Ga]Ga-H3P2O8 for imaging infection over inflammation, this novel probe was compared to other PET imaging probes, [^68Ga]Ga-Citrate and [^18F]FDG in an inflammation model. In a side-by-side study, all three probes were used to image inflammation (i.e., an inflamed tibia) in an osteomyelitis foreign body rat model.
row,Structure (SMILES),difference in mean SUV between the probes in inflamed tibia
1,"OC[C@H]1OC(O)[C@H]([18F])[C@@H](O)[C@@H]1O (some centres unmarked) [[^18F]FDG, [^18F]Fluorodeoxyglucose]",no significant difference
2,O=C([O-])CC(O)(CC(=O)[O-])C(=O)[O-].[Ga+3] [[^68Ga]Ga-Citrate],no significant difference
